From ChEMBL document CHEMBL2046338, “Synthesis and antimalarial activity of calothrixins A and B, and their N-alkyl derivatives” (Bioorg Med Chem Lett, 2012) come the findings set out here.

The structures appear in SMILES notation.

One may read the IC50 as the concentration that inhibits the measured activity by half. A lower IC50 goes with greater potency.

The assay has as its system Plasmodium falciparum. The assay is described as follows: Antimalarial activity against chloroquine sensitive Plasmodium falciparum FCR-3. It is filed as functional. The conditions noted are these: FCR-3/Gambia.
Compound `O=C1c2c[n+]([O-])c3ccccc3c2C(=O)c2c1c1ccccc1n2CCO` showed an IC50 of 0.25 µM.

As to `CCn1c2c(c3ccccc31)C(=O)c1c[n+]([O-])c3ccccc3c1C2=O`, half-maximal inhibition (IC50) required 0.38 µM.

The compound `O=C1c2c[n+]([O-])c3ccccc3c2C(=O)c2[nH]c3ccccc3c21` [CALOTHRIXIN A] displayed a 50% inhibitory concentration (IC50) of 0.185 µM.

Compound `CCn1c2c(c3ccccc31)C(=O)c1cnc3ccccc3c1C2=O` came in with a 50% inhibitory concentration (IC50) of 2.2 µM.

As for `CC(C)n1c2c(c3ccccc31)C(=O)c1c[n+]([O-])c3ccccc3c1C2=O`, the IC50 came out at 0.32 µM.

`O=C1c2[nH]c3ccccc3c2C(=O)c2cnc3ccccc3c21` [CALOTHRIXIN B] had an IC50 of 0.12 µM.

Take `Cn1c2c(c3ccccc31)C(=O)c1c[n+]([O-])c3ccccc3c1C2=O`: inhibition was half-maximal at 0.38 µM (IC50).

As for `CC(C)n1c2c(c3ccccc31)C(=O)c1cnc3ccccc3c1C2=O`, inhibition was half-maximal at 6.4 µM (IC50).

As to `O=C1c2cnc3ccccc3c2C(=O)c2c1c1ccccc1n2CCO`, the IC50 was 0.33 µM.

`Cn1c2c(c3ccccc31)C(=O)c1cnc3ccccc3c1C2=O`: the IC50 was 0.49 µM.
